Source: PMC10672842, “Anti-Trypanosoma cruzi Activity, Mutagenicity, Hepatocytotoxicity and Nitroreductase Enzyme Evaluation of 3-Nitrotriazole, 2-Nitroimidazole and Triazole Derivatives” (Molecules, 2023)
Read-outs that look alike come from different tables or passages of the source.

Legend:
S. typhimurium TA100 = system: S. typhimurium TA100
Experimental: (§1) The compounds were tested in a reverse mutation assay preincubation protocol in the absence and presence of metabolic activation following standard protocols previously proposed by Maron and Ames. The histidine-dependent (his^−) strains TA98 and TA100 of Salmonella typhimurium were inoculated in 10 mL of Oxoid nutrient broth No. 2 containing 25 µg/mL ampicillin and incubated overnight (15–18 h) at 37 ± 1 °C on an orbital shaker (CT-712, Cientec, Belo Horizonte, MG, Brazil) at 150 rpm, obtaining a concentration of 1–2 × 10^9 cells/mL, confirmed by titration in nutrient agar plates. Briefly, 100 µL of stationary growth cultures of each strain were preincubated for 20 min on an orbital shaker (150 rpm) at 37 ± 1 °C, with 500 µL of 0.2 M phosphate buffer pH 7.4, or 500 µL of S9 mix 4% (Molecular Toxicology, Baltimore, MD, USA), and 100 µL of compound dilutions (0–5000 µM) or controls. DMSO 1% was used as a negative control. […] After incubation, 2 mL of top agar (0.7% agar, 0.5% NaCl, 0.05 mM L-histidine and D-biotin) at 45 ± 3 °C was added and gently mixed. The final mixture was poured on glucose minimal agar plates (1.5% agar, 10 g/L MgSO4·7H2O; 100 g/L of C6H8O7·H2O; 500 g/L K2HPO4; 175 g/L Na(NH4)HPO4·4H2O, 2% glucose) and incubated for 72 h at 37 ± 1 °C. The results were expressed as the mean of revertant colonies (His^+) per plate, standard deviation (SD) and mutagenicity induction fold (IF), calculated as the ratio between the number of colonies in the test group and the number of colonies in the negative control group. Mutagenic potency was calculated as the slope of the linear portion of the concentration–response function and expressed as revertants/µM. All assays were performed in triplicate and repeated at least two times. Statistical analyses were carried out in GraphPad Prism software (version 5.00, GraphPad Software, Boston, MA, USA).

[1] = system: T. cruzi nitroreductase enzyme (TcNTR); assay: Kinetic assay with Trypanosoma cruzi nitroreductase enzyme (NADH oxidation); assay type: biochemical
Experimental: To determine a potential mechanism of action, nitroazole derivatives 5, 6, 8 and 9 were evaluated as substrates of the T. cruzi nitroreductase enzyme (TcNTR) and compared to BZN, the reference prodrug (Table 2). The enzymatic activity was measured by monitoring the oxidation of NADH, the first substrate of the enzyme, via spectrophotometric assays. […] At a concentration of 25 µM, derivatives 5 and 8 were metabolized at rates 2.3 and 2.6 times higher than that of BZN, respectively. At 50 µM, the compounds presented metabolism rates 1.6 and 3.0 times higher than that of BZN, respectively.
The protocols for expressing, purifying and conducting kinetic analysis with the recombinant TcNTR enzyme were adapted from the methods originally developed by Shane Wilkinson, with certain modifications.
For the kinetics assays, it was prepared a 200 μL solution which included 50 mM Tris-Base at pH 7.5, with a constant concentration of both NADH (50 μM) and the substances 5, 6, 8, 9 or BZN. Specifically, two distinct fixed concentrations (25 and 50 μM) of the substances 5, 6, 8, 9 or BZN were tested. These prepared mixtures were then incubated for 5 min at room temperature. Subsequently, the reaction was initiated by adding NTR to achieve a final concentration of 10 μg/mL. The reaction rates were monitored using a Hitachi U-2900 spectrophotometer, measuring the consumption of the primary substrate, NADH (λ = 340 nm; ε = 6.220 M^−1 cm^−1), over a 2-min interval. The resulting data curves were analyzed through linear regression using OriginPro 2016 software. To evaluate the reaction rate (Kobs) obtained from the 25 and 50 μM concentrations of each substrate, comparisons were made with the reference values for BZN. Measurement errors were calculated using the formula: Error = Z × σ/√n, where ‘Z’ denotes the critical value, ‘σ’ represents the standard deviation and ‘n’ is the number of test measurements, which were performed at least in triplicate.

S. typhimurium TA98 = assay: Salmonella reverse mutation assay (Ames test, preincubation), TA98
Experimental: as §1

## O=C(Cn1ccnc1[N+](=O)[O-])NCc1ccccc1 [BZN, benznidazole, reference compound]
S. typhimurium TA1535; TA1535, +S9, 0.5 µM
  IF (induction factor): 1.3
  revertant His+ colonies, mean ± SD: 13 ± 1
S. typhimurium TA1535; TA1535, +S9, 5 µM
  IF (induction factor): 1.6
  revertant His+ colonies, mean ± SD: 17 ± 3
S. typhimurium TA1535; TA1535, +S9, 50 µM
  IF (induction factor): 2.1
  revertant His+ colonies, mean ± SD: 22 ± 3
S. typhimurium TA1535; TA1535, +S9, 500 µM
  IF (induction factor): 2.9
  revertant His+ colonies, mean ± SD: 31 ± 2
S. typhimurium TA1535; TA1535, +S9, 5000 µM
  IF (induction factor): 3.0
  revertant His+ colonies, mean ± SD: 32 ± 4
S. typhimurium TA1535; TA1535, absence or presence of metabolic activation
  Mutagenicity in the Ames test (verdict): mutagenic
S. typhimurium TA1535; TA1535, −S9, 0.5 µM
  IF (induction factor): 1.5
  revertant His+ colonies, mean ± SD: 11 ± 2
S. typhimurium TA1535; TA1535, −S9, 5 µM
  IF (induction factor): 1.5
  revertant His+ colonies, mean ± SD: 11 ± 5
S. typhimurium TA1535; TA1535, −S9, 50 µM
  IF (induction factor): 1.5
  revertant His+ colonies, mean ± SD: 11 ± 1
S. typhimurium TA1535; TA1535, −S9, 500 µM
  IF (induction factor): 2.5
  revertant His+ colonies, mean ± SD: 18 ± 4
S. typhimurium TA1535; TA1535, −S9, 5000 µM
  IF (induction factor): 4.9
  revertant His+ colonies, mean ± SD: 36 ± 5
S. typhimurium TA100; TA100, +S9
  Mutagenic potency (slope of the linear portion of the concentration–response function): 1382.2 revertants/µM
S. typhimurium TA100; TA100, +S9, 0.5 µM
  IF (induction factor): 0.9
  revertant His+ colonies, mean ± SD: 95 ± 3
S. typhimurium TA100; TA100, +S9, 5 µM
  IF (induction factor): 1.0
  revertant His+ colonies, mean ± SD: 110 ± 8
S. typhimurium TA100; TA100, +S9, 50 µM
  IF (induction factor): 2.5
  revertant His+ colonies, mean ± SD: 269 ± 13
S. typhimurium TA100; TA100, +S9, 500 µM
  IF (induction factor): 8.6
  revertant His+ colonies, mean ± SD: 907 ± 10
S. typhimurium TA100; TA100, absence or presence of metabolic activation
  Mutagenicity in the Ames test (verdict): mutagenic
S. typhimurium TA100; TA100, −S9
  Mutagenic potency (slope of the linear portion of the concentration–response function): 1789.9 revertants/µM
S. typhimurium TA100; TA100, −S9, 0.5 µM
  IF (induction factor): 1.0
  revertant His+ colonies, mean ± SD: 130 ± 6
S. typhimurium TA100; TA100, −S9, 5 µM
  IF (induction factor): 1.6
  revertant His+ colonies, mean ± SD: 217 ± 13
S. typhimurium TA100; TA100, −S9, 50 µM
  IF (induction factor): 6.2
  revertant His+ colonies, mean ± SD: 852 ± 40
S. typhimurium TA100; TA100, −S9, 500 µM
  IF (induction factor): 28.2
  revertant His+ colonies, mean ± SD: 3848 ± 11
S. typhimurium TA100; TA100, −S9, 5000 µM
  IF (induction factor): 53.0
  revertant His+ colonies, mean ± SD: 7264 ± 62
S. typhimurium TA100; TA100, −S9 and +S9
  Mutagen classification according to Claxton et al.: extremely high mutagen
[1]; 25 µM Derivative + 50 µM NADH
  Kobs: 0.36 µmol of oxidized NADH/min/mg TcNTR
[1]; 50 µM Derivative + 50 µM NADH
  Kobs: 0.36 µmol of oxidized NADH/min/mg TcNTR
S. typhimurium TA98; TA98, +S9, 0.5 µM
  IF (induction factor): 0.9
  revertant His+ colonies, mean ± SD: 21 ± 2
S. typhimurium TA98; TA98, +S9, 5 µM
  IF (induction factor): 0.9
  revertant His+ colonies, mean ± SD: 17 ± 2
S. typhimurium TA98; TA98, +S9, 50 µM
  IF (induction factor): 0.7
  revertant His+ colonies, mean ± SD: 18 ± 1
S. typhimurium TA98; TA98, +S9, 500 µM
  IF (induction factor): 1.3
  revertant His+ colonies, mean ± SD: 31 ± 6
S. typhimurium TA98; TA98, +S9, 5000 µM
  IF (induction factor): 1.4
  revertant His+ colonies, mean ± SD: 33 ± 4
S. typhimurium TA98; TA98, −S9, 0.5 µM
  IF (induction factor): 1.1
  revertant His+ colonies, mean ± SD: 28 ± 6
S. typhimurium TA98; TA98, −S9, 5 µM
  IF (induction factor): 1.1
  revertant His+ colonies, mean ± SD: 28 ± 4
S. typhimurium TA98; TA98, −S9, 50 µM
  IF (induction factor): 1.1
  revertant His+ colonies, mean ± SD: 28 ± 2
S. typhimurium TA98; TA98, −S9, 500 µM
  IF (induction factor): 1.4
  revertant His+ colonies, mean ± SD: 37 ± 5
S. typhimurium TA98; TA98, −S9, 5000 µM
  IF (induction factor): 2.5
  revertant His+ colonies, mean ± SD: 67 ± 4
